Measured values: the NIST ThermoML archive (doi:10.1016/j.jct.2017.08.006)
Numbers after ± are expanded uncertainties.

Columns and labels:
[1] = Liquid; for mass density: 293.15 K, 101.33 kPa, Pycnometric method
[2] = refractive index (Na D-line) (dimensionless); conditions: 101.33 kPa, Liquid, Standard Abbe refractometry
[3] = Boiling temperature at pressure P; conditions: Liquid, Ebulliometric method (Recirculating still)

In the case of CC(C)CO [2-methyl-1-propanol], the mass density [1] is reported as 801.8 ± 1 kg/m3, the “vapor or sublimation pressure” value ([1]; 381.1 K, Ebulliometric method (Recirculating still)) is reported as 101.33 ± 0.51 kPa and the refractive index ([2]; 298.15 K) is reported as 1.3939 ± 0.0007.

For COCOCC(C)C [1-(methoxymethoxy)-2-methylpropane], the mass density [1] was 832.5 ± 1 kg/m3, the “Boiling temperature at pressure P” value ([3]; 5.01 kPa) was 33.5 ± 0.18 °C and the “Boiling temperature at pressure P” value ([3]; 9.98 kPa) was 47 ± 0.16 °C. The “Boiling temperature at pressure P” value ([3]; 14.69 kPa) was 55.23 ± 0.13 °C, the “Boiling temperature at pressure P” value ([3]; 19.75 kPa) was 62.17 ± 0.12 °C and the “Boiling temperature at pressure P” value ([3]; 26.67 kPa) was 69.60 ± 0.11 °C. The “Boiling temperature at pressure P” value ([3]; 40.02 kPa) was 80.57 ± 0.11 °C, the “Boiling temperature at pressure P” value ([3]; 53.72 kPa) was 89.19 ± 0.11 °C and the “Boiling temperature at pressure P” value ([3]; 65.01 kPa) was 95.2 ± 0.1 °C. The “Boiling temperature at pressure P” value ([3]; 79.21 kPa) was 101.51 ± 0.1 °C, the “Boiling temperature at pressure P” value ([3]; 90 kPa) was 105.86 ± 0.1 °C and the “Boiling temperature at pressure P” value ([3]; 101.33 kPa) was 109.98 ± 0.1 °C. The “Boiling temperature at pressure P” value ([3]; 116.34 kPa) was 115.03 ± 0.1 °C, the “Boiling temperature at pressure P” value ([3]; 120 kPa) was 116.21 ± 0.1 °C and the “Boiling temperature at pressure P” value ([3]; 125.01 kPa) was 117.72 ± 0.1 °C. For the same compound, the “Boiling temperature at pressure P” value ([3]; 130 kPa) was 119.27 ± 0.1 °C, the refractive index ([2]; 293.15 K) was 1.385 ± 0.0007 and the refractive index ([2]; 298.15 K) was 1.3827 ± 0.0007.

CCCCO [butan-1-ol] showed a mass density [1] of 809.5 ± 1 kg/m3 and a refractive index ([2]; 298.15 K) of 1.3971 ± 0.0007.
